What all share (test): CD titration, Hyperquad 2003 fit
Experiment [1] relates to c-mycTGA-de (DNA, G4) GGGTGGGGAGGGTGGGGAA
The conditions noted are these: K+ (17 mM K2HPO4/KH2PO4); pH 7.40, 5% DMSO, 20 °C; site 1 of 2, stepwise 1:1; second G4 2.8 × 10^2 M^-1.

For experiment [2], the system named is c-myc1245 (DNA, G4) TGAGGGTGGGTTTTTAGGGTGGGGAA
The conditions noted are these: K+ (17 mM K2HPO4/KH2PO4); pH 7.40, 5% DMSO, 20 °C; conflict: Figure S38 legend prints (5.1 ± 0.2) × 10^4.

Experiment [3] has as its system c-kitG20T (DNA, G4) AGGGAGGGCGCTGGGAGGATGG
The conditions noted are these: K+ (17 mM K2HPO4/KH2PO4); pH 7.40, 5% DMSO, 20 °C; site 1 of 2, stepwise 1:1; second G4 1.1 × 10^5 M^-1.

Molecules are shown by their SMILES.

Regarding `Cn1c2cccc(n2)n(C)c2cccc(n2)n(C)c2cccc(n2)n(C)c2cccc(n2)n(C)c2cccc(n2)n(C)c2cccc1n2`, the values for the Ka result in experiment [1] and in experiment [2] were “(5.1 ± 0.2) × 10^4 M^-1” and “(1.3 ± 0.05) × 10^6 M^-1”, respectively. In addition, in experiment [3], the Ka1 result is given as “(9.4 ± 0.4) × 10^4 M^-1”.

(Values after article PMC4438431 (2015).)
